Assay results taken from patent US20020016346A1, “Method for enhancing outflow of aqueous humor in treatment of glaucoma” (The Regents University of California, a California …, priority 1994, published 2002).

Experiments:
TM cell monolayers = test: Flux of 14C-sucrose across confluent TM cell monolayers on filters; assay type: cell-based; details: 15 minute assay period
Description: To investigate the possibility that alteration of TM intracellular volume results in modulation of trabecular meshwork barrier permeability, we evaluated the flux of ^14C-sucrose across confluent TM cell monolayers grown on permeable filters. Cells were grown to confluence on collagen-coated dual level tissue culture filter inserts placed in covered multiwell cluster plates, as shown schematically in […], wherein lower chamber 2 is formed by suspension of membrane 4 with cells attached into holder 6, which is covered by cover 8. Upper chamber 10 is formed by the space within the holder above the membrane. Growth media (EMEM) volumes of 0.5 and 1.5 ml were used for upper and lower chambers, respectively, as previously described (Kajimura, et al., FASEB J, 8:A1045, 1994) for evaluation of endothelial cell monolayers and for evaluation of water permeability of TM cell monolayers (Perkins, et al., Invest. Ophthalmol. Vis. Sci., 29:1836-1846, 1988). One insert was placed in each of 12 wells in a cluster plate. Permeability was assessed as the flux of ^14C-sucrose across the TM cell monolayers. […] Sucrose content of the samples was determined by […] methods. The amount of solute was calculated from the radioactivity present in the sample and the specific activity (cpm/μmol) of the ^14C-sucrose.

eye of a rabbit = test: Intra-ocular pressure in rabbits after subconjunctival injection; assay type: in vivo
Description: Male albino New Zealand rabbits weighing≧2 Kg were used for in vivo experiments performed under various active animal use protocols approved by the Institutional Animal Care and Use Committee at UC Davis. Animals were sedated with an intravenous dose of Napentabarbitol, 1-2 mg/Kg to permit their handling and frequent measurement of intra-ocular pressure (IOP). Topical anesthesia consisting of Proparacaine HCl (Alcaine™) was used for IOP measurements. A pneumatonometer (Mentor O & O Classic Model 30 Penumatonometer™, Norwell, Mass.) calibrated to a known (25 mmHg) pressure prior to each experiment was used for all IOP measurements. This model of Pneumatonometer provides a readout of standard deviation of each measurement; only measurements with a standard deviation of≦1 mmHg were accepted and most were less than 0.5 mmHg. Following sedation, IOP measurements were carried out over at least 30 minutes to assure that a stable baseline IOP was present.
Drugs and/or vehicle was administered to one eye of each animal via subconjunctival injection in order to bypass any barriers to drug penetration, such as an intact corneal and conjunctival epithelium and to achieve rapid and high concentrations of drug, bypassing epithelial barriers. The contralateral eye treated only with vehicle served as a control for each animal. Two syringes were prepared for each experiment, one containing drug and vehicle, the other containing only vehicle. […] Injections raised a prominent bleb, confirming subconjunctival placement of the drug or vehicle. This bleb then smoothed out over about ten minutes, indicating diffusion of the drug or vehicle throughout the subconjunctival space.
Measurements of intra-ocular pressure were taken at various intervals following the subconjunctival administration of the drug and/or vehicle. IOP in both eyes fluctuated over time reflecting the level of anesthesia. During the course of the experiment, the animal handlers and investigators were masked as to which eve had received the drug or control injection.

With `CCCCNc1cc(C(=O)O)cc(S(N)(=O)=O)c1Oc1ccccc1` [bumetanide] the “monolayer permeability to sucrose” value (TM cell monolayers) was “increased”, the “average IOP lowering effect” value (eye of a rabbit; average of two experiments, FIG. 6) was “over 20%” and the “effect on IOP” value (eye of a rabbit; bumetanide 10^−5 M in DMSO, 0.1 cc subconjunctival, first animal) was “rapid and pronounced and lasted beyond two hours”.
